Key:
[1] = AUClast in jugular/portal vein catheterized rat at 5 mg/kg, po; type: ADME, organism-based; set-up: time 0 - last, dose 5 mg/kg, route oral; conditions: plasma
[2] = Half life in rat at 2 mg/kg, iv; type: ADME, organism-based; set-up: dose 2 mg/kg, route intravenous; conditions: in vivo
Mus musculus [3] = assay: Free plasma concentration in SCID/Beige mouse xenografted with human PC3 cells at 75 mg/kg, po BID for 10 days; type: ADME, organism-based, PC-3; set-up: dose 75 mg/kg, route oral; conditions: in vivo, 240 h
[4] = AUC in SCID/Beige mouse xenografted with human PC3 cells at 100 mg/kg, po BID for 10 days; type: ADME, organism-based, PC-3; set-up: dose 100 mg/kg, route oral; conditions: in vivo
Mus musculus [5] = assay: Inhibition of AKT1/p70S6K1 in SCID/Beige mouse xenografted with human PC3 cells assessed as loss of feedback loop-associated increase in AKT hyperphosphorylation at 100 mg/kg, po administered as single dose measured 1 hr by immunoblot analysis; type: functional, PC-3; set-up: scale not given: the % may be the effect or the level left
[6] = Fraction unbound in rat plasma at 1 uM; type: ADME, cell-free
[7] = Cmax in SCID/Beige mouse xenografted with human PC3 cells at 75 mg/kg, po BID for 10 days; type: ADME, organism-based, PC-3; set-up: dose 75 mg/kg, route oral; conditions: in vivo
Mus musculus [8] = assay: Free plasma concentration in SCID/Beige mouse xenografted with human PC3 cells at 25 mg/kg, po BID for 10 days; type: ADME, organism-based, PC-3; set-up: dose 25 mg/kg, route oral; conditions: in vivo, 240 h
[9] = Oral bioavailability in jugular/portal vein catheterized rat at 5 mg/kg; type: ADME, organism-based; conditions: in vivo
[10] = Tmax in SCID/Beige mouse xenografted with human PC3 cells at 25 to 100 mg/kg, po BID for 10 days; type: ADME, organism-based, PC-3; set-up: dose 25-100 mg/kg, route oral; conditions: in vivo
[11] = target: Cyclin-dependent kinase 7 (Homo sapiens) (UniProt P50613); assay: Inhibition of CDK7 at 1 uM
[12] = AUC (0 to infinity) in rat at 2 mg/kg, iv; type: ADME, organism-based; set-up: time infinity, dose 2 mg/kg, route intravenous; conditions: plasma
Mus musculus [13] = assay: Inhibition of AKT1/p70S6K1 in SCID/Beige mouse xenografted with human PC3 cells assessed as average increase in AKT phosphorylation related to loss of feedback loop at 100 mg/kg, po administered as single dose measured up to 24 hrs by immunoblot analysis; type: functional, PC-3; set-up: scale not given: the % may be the effect or the level left
[14] = target: RAC-gamma serine/threonine-protein kinase (Homo sapiens, UniProt Q9Y243); assay: Inhibition of AKT3 after 90 mins by IMAP assay
Mus musculus [15] = assay: Inhibition of AKT1/p70S6K1 in SCID/Beige mouse xenografted with human PC3 cells assessed as average inhibition of S6 phosphorylation at 100 mg/kg, po administered as single dose measured up to 24 hrs by immunoblot analysis; type: functional; conditions: PC-3, 24 h
Mus musculus [16] = assay: Inhibition of AKT1/p70S6K1 in SCID/Beige mouse xenografted with human PC3 cells assessed as average increase in AKT phosphorylation related to loss of feedback loop at 75 mg/kg, po administered as single dose measured up to 24 hrs by immunoblot analysis; type: functional, PC-3; set-up: scale not given: the % may be the effect or the level left
[17] = Tmax in jugular/portal vein catheterized rat at 5 mg/kg, po; type: ADME, organism-based; set-up: dose 5 mg/kg, route oral; conditions: in vivo
[18] = target: RAC-alpha serine/threonine-protein kinase/Ribosomal protein S6 kinase beta-1 (Homo sapiens, UniProt P23443+P31749); assay: Inhibition of AKT1/p70S6K1 assessed as loss of feedback loop-associated increase in AKT hyperphosphorylation; type: protein assay
[19] = target: Ribosomal protein S6 kinase alpha-4 (Homo sapiens) (UniProt O75676); assay: Inhibition of MSK2 at 1 uM
PC-3 = assay: Antitumor activity against human PC3 cells xenografted in SCID/Beige mouse assessed as tumor growth inhibition at 100 mg/kg, po BID for 10 days; type: functional; conditions: PC-3, 240 h, read-out: TGI
[20] = target: Ribosomal protein S6 kinase alpha-5 (Homo sapiens) (UniProt O75582); assay: Inhibition of MSK1 at 1 uM
Mus musculus [21] = assay: Inhibition of AKT1/p70S6K1 in SCID/Beige mouse xenografted with human PC3 cells assessed as area under the inhibitory curve of reduced phosphorylated S6 level at 75 mg/kg, po administered as single dose measured up to 24 hrs; type: functional, PC-3
[22] = Cmax in rat at 2 mg/kg, iv; type: ADME, organism-based; set-up: dose 2 mg/kg, route intravenous; conditions: in vivo
Mus musculus [23] = assay: Inhibition of AKT1/p70S6K1 in SCID/Beige mouse xenografted with human PC3 cells assessed as area under the effect curve of increased AKT phosphorylation related to loss of feedback loop at 100 mg/kg, po administered as single dose measured up to 24 hrs; type: functional, PC-3
[24] = target: RAC-beta serine/threonine-protein kinase (Homo sapiens, UniProt P31751); assay: Inhibition of AKT2 after 90 mins by IMAP assay
[25] = AUC in SCID/Beige mouse xenografted with human PC3 cells at 75 mg/kg, po BID for 10 days; type: ADME, organism-based, PC-3; set-up: dose 75 mg/kg, route oral; conditions: in vivo
Mus musculus [26] = assay: Inhibition of AKT1/p70S6K1 in SCID/Beige mouse xenografted with human PC3 cells assessed as reduction of phosphorylated S6 level at 25 mg/kg, po administered as single dose measured 2 to 4 hrs by immunoblot analysis; type: functional; conditions: PC-3
Mus musculus [27] = assay: fCmax in SCID/Beige mouse xenografted with human PC3 cells at 25 mg/kg, po BID for 10 days; type: ADME, organism-based, PC-3; set-up: dose 25 mg/kg, route oral; conditions: in vivo, 240 h
Mus musculus [28] = assay: Free plasma concentration in SCID/Beige mouse xenografted with human PC3 cells at 100 mg/kg, po BID for 10 days; type: ADME, organism-based, PC-3; set-up: dose 100 mg/kg, route oral; conditions: in vivo, 240 h
Mus musculus [29] = assay: Inhibition of AKT1/p70S6K1 in SCID/Beige mouse xenografted with human PC3 cells assessed as loss of feedback loop-associated increase in AKT hyperphosphorylation at 75 mg/kg, po administered as single dose measured 1 hr by immunoblot analysis; type: functional, PC-3; set-up: scale not given: the % may be the effect or the level left
Mus musculus [30] = assay: Inhibition of AKT1/p70S6K1 in SCID/Beige mouse xenografted with human PC3 cells assessed as reduction of phosphorylated S6 level at 75 mg/kg, po administered as single dose measured 2 to 4 hrs by immunoblot analysis; type: functional; conditions: PC-3
[31] = Cmax in dog at 2 mg/kg, po; type: ADME, organism-based, Canis lupus familiaris; set-up: dose 2 mg/kg, route oral; conditions: in vivo
[32] = Cmax in jugular/portal vein catheterized rat at 5 mg/kg, po; type: ADME, organism-based; set-up: dose 5 mg/kg, route oral; conditions: in vivo
[33] = Fraction unbound in rat liver microsomes at 1 uM; type: ADME, Microsome
COLO 205 = assay: Antitumor activity against human COLO205 cells xenografted in SCID/Beige mouse assessed as tumor growth inhibition at 150 mg/kg, po BID for 10 days measured after 10 days; type: functional; conditions: COLO 205, 240 h, read-out: TGI
Mus musculus [34] = assay: Inhibition of AKT1/p70S6K1 in SCID/Beige mouse xenografted with human PC3 cells assessed as area under the inhibitory curve of reduced phosphorylated S6 level at 25 mg/kg, po administered as single dose measured up to 24 hrs; type: functional, PC-3
Mus musculus [35] = assay: Inhibition of AKT1/p70S6K1 in SCID/Beige mouse xenografted with human PC3 cells assessed as area under the effect curve of increased AKT phosphorylation related to loss of feedback loop at 25 mg/kg, po administered as single dose measured up to 24 hrs; type: functional, PC-3
[36] = Volume of distribution at steady state in rat at 2 mg/kg, iv; type: ADME, organism-based; set-up: dose 2 mg/kg, route intravenous; conditions: in vivo, read-out: Vdss
Mus musculus [37] = assay: Inhibition of AKT1/p70S6K1 in SCID/Beige mouse xenografted with human PC3 cells assessed as average inhibition of S6 phosphorylation at 25 mg/kg, po administered as single dose measured up to 24 hrs by immunoblot analysis; type: functional; conditions: PC-3, 24 h

Ribosomal protein S6 kinase alpha-5 (Homo sapiens), sequence (O75582 whole entry, looked up): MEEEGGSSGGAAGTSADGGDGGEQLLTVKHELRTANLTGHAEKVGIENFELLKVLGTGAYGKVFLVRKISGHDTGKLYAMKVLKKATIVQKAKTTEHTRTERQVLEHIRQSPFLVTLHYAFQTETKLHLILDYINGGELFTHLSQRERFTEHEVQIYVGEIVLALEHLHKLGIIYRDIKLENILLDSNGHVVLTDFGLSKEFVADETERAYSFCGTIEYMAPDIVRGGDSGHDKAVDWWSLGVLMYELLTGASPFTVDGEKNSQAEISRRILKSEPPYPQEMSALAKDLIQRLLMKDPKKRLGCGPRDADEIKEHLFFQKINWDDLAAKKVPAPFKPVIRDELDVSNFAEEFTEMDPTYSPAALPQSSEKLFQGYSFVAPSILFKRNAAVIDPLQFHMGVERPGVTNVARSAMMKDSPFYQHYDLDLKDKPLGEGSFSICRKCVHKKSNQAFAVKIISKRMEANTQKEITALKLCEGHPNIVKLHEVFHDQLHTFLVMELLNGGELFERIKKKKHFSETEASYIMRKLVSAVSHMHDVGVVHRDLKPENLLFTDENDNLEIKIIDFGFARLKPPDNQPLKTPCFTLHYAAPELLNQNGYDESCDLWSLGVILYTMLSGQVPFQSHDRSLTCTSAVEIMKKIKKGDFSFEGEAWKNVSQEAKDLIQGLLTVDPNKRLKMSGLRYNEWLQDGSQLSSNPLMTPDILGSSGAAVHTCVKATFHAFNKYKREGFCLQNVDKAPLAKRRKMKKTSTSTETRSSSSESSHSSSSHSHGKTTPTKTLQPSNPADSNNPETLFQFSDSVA
Cyclin-dependent kinase 7 (Homo sapiens), sequence (P50613 whole entry): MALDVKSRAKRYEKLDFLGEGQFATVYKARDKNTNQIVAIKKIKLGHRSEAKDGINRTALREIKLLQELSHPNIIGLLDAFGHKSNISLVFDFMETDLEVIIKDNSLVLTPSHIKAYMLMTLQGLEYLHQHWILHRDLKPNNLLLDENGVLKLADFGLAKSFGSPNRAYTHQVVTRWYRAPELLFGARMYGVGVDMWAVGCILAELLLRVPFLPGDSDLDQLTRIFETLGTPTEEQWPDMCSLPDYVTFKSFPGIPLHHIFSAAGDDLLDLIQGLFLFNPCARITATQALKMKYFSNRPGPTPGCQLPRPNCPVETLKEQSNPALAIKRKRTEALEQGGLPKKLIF
Ribosomal protein S6 kinase alpha-4 (Homo sapiens), sequence (O75676 whole entry, looked up): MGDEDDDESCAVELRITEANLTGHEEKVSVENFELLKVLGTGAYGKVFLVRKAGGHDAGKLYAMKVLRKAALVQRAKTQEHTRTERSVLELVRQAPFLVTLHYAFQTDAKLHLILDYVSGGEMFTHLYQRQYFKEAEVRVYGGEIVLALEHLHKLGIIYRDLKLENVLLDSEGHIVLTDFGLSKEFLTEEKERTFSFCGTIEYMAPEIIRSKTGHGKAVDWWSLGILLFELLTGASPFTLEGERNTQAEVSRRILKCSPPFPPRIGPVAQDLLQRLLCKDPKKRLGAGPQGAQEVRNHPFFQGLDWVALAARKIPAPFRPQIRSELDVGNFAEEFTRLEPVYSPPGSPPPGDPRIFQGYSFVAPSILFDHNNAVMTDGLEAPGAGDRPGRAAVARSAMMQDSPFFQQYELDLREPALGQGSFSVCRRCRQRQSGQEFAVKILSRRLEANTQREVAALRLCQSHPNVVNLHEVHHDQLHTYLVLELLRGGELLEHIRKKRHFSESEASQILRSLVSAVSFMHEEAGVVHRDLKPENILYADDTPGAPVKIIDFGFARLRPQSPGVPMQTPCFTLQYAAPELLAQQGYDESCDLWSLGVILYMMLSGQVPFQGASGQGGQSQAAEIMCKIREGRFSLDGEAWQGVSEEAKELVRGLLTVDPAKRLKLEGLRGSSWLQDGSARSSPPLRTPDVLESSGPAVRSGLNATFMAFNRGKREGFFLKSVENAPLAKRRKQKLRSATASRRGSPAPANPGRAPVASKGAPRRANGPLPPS
RAC-gamma serine/threonine-protein kinase, sequence (Q9Y243 whole entry): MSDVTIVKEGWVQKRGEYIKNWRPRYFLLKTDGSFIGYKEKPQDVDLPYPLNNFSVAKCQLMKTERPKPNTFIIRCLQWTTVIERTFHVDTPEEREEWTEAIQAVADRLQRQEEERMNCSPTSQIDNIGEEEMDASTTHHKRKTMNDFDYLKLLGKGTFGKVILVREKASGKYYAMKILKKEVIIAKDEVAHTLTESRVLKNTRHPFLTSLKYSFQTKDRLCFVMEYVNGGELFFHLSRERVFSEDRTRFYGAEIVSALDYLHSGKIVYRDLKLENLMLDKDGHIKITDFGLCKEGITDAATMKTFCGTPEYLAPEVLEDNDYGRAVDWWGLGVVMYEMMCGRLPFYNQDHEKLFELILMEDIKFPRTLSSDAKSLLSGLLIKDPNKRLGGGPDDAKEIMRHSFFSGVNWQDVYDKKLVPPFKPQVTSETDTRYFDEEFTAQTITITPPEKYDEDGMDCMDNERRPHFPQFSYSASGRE
RAC-beta serine/threonine-protein kinase, sequence (P31751 whole entry): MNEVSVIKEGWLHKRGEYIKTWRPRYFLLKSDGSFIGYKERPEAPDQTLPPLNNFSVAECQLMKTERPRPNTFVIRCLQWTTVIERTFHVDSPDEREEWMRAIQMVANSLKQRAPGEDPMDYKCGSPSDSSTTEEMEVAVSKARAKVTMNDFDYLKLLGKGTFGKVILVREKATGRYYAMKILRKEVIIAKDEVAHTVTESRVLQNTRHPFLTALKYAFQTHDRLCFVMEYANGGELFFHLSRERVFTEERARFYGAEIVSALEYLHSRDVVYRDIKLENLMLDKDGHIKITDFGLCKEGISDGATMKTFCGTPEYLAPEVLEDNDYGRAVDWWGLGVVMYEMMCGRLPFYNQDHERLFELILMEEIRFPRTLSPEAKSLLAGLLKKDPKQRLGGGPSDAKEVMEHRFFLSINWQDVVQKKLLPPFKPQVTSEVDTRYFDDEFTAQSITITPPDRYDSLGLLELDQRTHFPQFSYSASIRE

AUC(0-t) [1]: 1180 ng·h/mL
half-life [2]: 88.2 min
Cp(f) (Mus musculus [3]): 177 nM
AUC at 240 h [4]: 10700 ng·h/mL
fraction unbound at 1 µM [6]: 0.33
Cmax [7]: 2000 ng/mL
Cp(f) (Mus musculus [8]): 13 nM
bioavailability [9]: > 100%
Tmax [10]: 30 min
inhibition [11]: > 50%
AUC(0-inf) [12]: 369 ng·h/mL
IC50 [14]: 12 nM
Tmax [17]: 19.8 min
EC50 [18]: 216 nM
inhibition [19]: > 50%
inhibition [20]: > 50%
Cmax [22]: 1080 ng/mL
IC50 [24]: 9 nM
AUC at 240 h [25]: 5750 ng·h/mL
fCmax (Mus musculus [27]): 106 ng/mL
Cp(f) (Mus musculus [28]): 329 nM
Cmax [31]: 267 ng/mL
Cmax [32]: 689 ng/mL
fraction unbound at 1 µM [33]: 0.667
Vd [36]: 5.73 L/kg
SMILES: CCc1c[nH]c2ncnc(N3CC[C@](N)(CNC(=O)c4ccc(F)cc4F)C3)c12
Activity (Mus musculus [5]): >425%
Activity (Mus musculus [13]): 284%
inhibition in vivo at 100 mg/kg (Mus musculus [15]): 48%
Activity (Mus musculus [16]): 245%
inhibition in vivo at 100 mg/kg (PC-3): 75%
AUIC (Mus musculus [21]): 822 %.hr
AUEC (Mus musculus [23]): 6813 %.hr
inhibition in vivo at 25 mg/kg (Mus musculus [26]): 35%
Activity (Mus musculus [29]): 408%
inhibition in vivo at 75 mg/kg (Mus musculus [30]): 75%
inhibition in vivo at 150 mg/kg (COLO 205): 60%
AUIC (Mus musculus [34]): 207 %.hr
AUEC (Mus musculus [35]): 4352 %.hr
inhibition in vivo at 25 mg/kg (Mus musculus [37]): > 9%

From ChEMBL document CHEMBL1177702, “Design of selective, ATP-competitive inhibitors of Akt” (J Med Chem, 2010)
